Assay [1] relates to hECaC1. Kind of assay: Quantitative PCR of hECaC1 expression in cultured human keratinocytes. It is filed as cell-based. The conditions noted are these: up to 3 days treatment with 2 mM calcium or 1 μM VitD. An excerpt:
(§1) There is currently no published data on expression of either hECaC1 or hECaC2 in either primary human keratinocytes or human skin, although murine ECaC2 expression has been reported for mouse skin (Weber et al, 2001 Biochem Biophys Res Commun 289:1287-1294). Therefore, the inventors investigated if keratinocytes expressed either or both ECaC channels, and whether expression of these channels was correlated with cell differentiation stimulated by either calcium or VitD. […] However, hECaC2 expression was readily detected in these same cultures. At 1 and 3 days of culture hECaC2 expression levels were 0.014±0.002% and 0.005±0.0005% of GAPDH (N=3). […] Therefore, the observed absence of hECaC1 expression in keratinocytes was indeed due to the mRNA for this gene being at levels so low that they were undetectable.
(§2) The effects of elevated calcium or VitD on expression of hECaC1 or 2 in cultured keratinocytes were investigated. […] After 1 day in 2 mM calcium there was a small but consistent decrease in hECaC2 expression, which averaged approximately 85% of the untreated control.

The subject of assay [2] is hECaC2. Nature of the assay: Quantitative TaqMan PCR of hECaC2 mRNA (normalized to GAPDH) in cultured human epidermal keratinocytes. It is filed as cell-based. The conditions noted are these: for increase in hECaC2 expression: 2 mM calcium and/or 1 μM VitD, relative to untreated, time-matched cultures. As to the method:
Quantitative, TaqMan-based PCR was used to assess changes in mRNA levels for hECaC2 (normalized to GAPDH) from keratinocyte cultures grown in 2 mM calcium or 1 μM VitD over 1 and 3 days. mRNA levels are expressed as fold-changes versus levels measured in sibling cultures grown for 1 and 3 days in basal calcium (0.06 mM) and no VitD. VitD caused greater increases in hECaC2 expression than did calcium. […] Note differences in scaling of y-axes. All increases are significant from control with the exception of calcium at 1 day. Results are mean-±SEM from three experiments.
as §1, §2
Background: Quantitative PCR measures a nucleic acid by following its amplification.

Assay [3] relates to hECaC2. Kind of assay: Quantitative PCR of hECaC2 mRNA in cultured human skin biopsies (explant culture). It is filed as cell-based. The conditions noted are these: 1 μM VitD in culture medium (1.4 mM calcium), versus untreated biopsies cultured the same number of days. As to the method:
Skin biopsies were taken from healthy donors and cultured for the indicated times with 1 μM VitD or with vehicle added to the culture medium. mRNA levels for hECaC2 were measured by quantitative PCR, normalized to GAPDH, and fold changes in expression were calculated relative to vehicle treated controls. Results are mean±SEM from two experiments.
The effect of VitD on hECaC2 expression in skin explants over time in culture was next examined, but the dynamics of gene expression in this system had to first be defined. All experiments with explant, cultured skin biopsies were performed in medium containing 1.4 mM calcium, a requirement for long-term viability (Varani et al, 1993 Am J Pathol 142:189-198). Biopsies placed in RNALater at time of collection were used to define expression levels of these genes at “−1” days in culture. Biopsies for which RNA was extracted immediately upon arrival in the lab (after overnight shipping from the source) were designated as “0” days in culture. Data for days 1 and 3 are from biopsies which were then cultured in the lab. All biopsies for an experiment were from the same donor.

Assay [4] concerns hECaC2. The conditions noted are these: Caco-2 cells; Wood et al, 2001; cited from earlier work.
In assay [5] the test system is hECaC1. The conditions noted are these: 1 μM VitD, cultured skin biopsies. As to the method: The effect of VitD on gene expression in cultured biopsies was assessed by comparing mRNA levels in the treated biopsies to levels in untreated biopsies cultured for the same number of days (FIG. 4).
Assay [6] concerns murine ECaC1 or 2. The conditions noted are these: including in skin; Weber et al, 2001; cited from earlier work.

“And” between values parts separate entries of the source, which are not always exact repeats. Identical values can stand only once.

Turning to `[Ca+2]` [calcium], the hECaC1 expression entry in assay [1] was “not detected”. Further, the “hECaC2 expression, % of the untreated control” value in assay [2] (1 day in 2 mM calcium) is reported as “approximately 85%”. Further, the “increase in hECaC2 expression” value in assay [2] (3 days treatment) is recorded as “approximately 3.8 fold”.

As for Vitamin D [VitD], the hECaC1 expression entry in assay [1] is “not detected”. The “increase in hECaC2 expression” value is 63 fold and 60 fold in assay [2] (1 day treatment); 51 fold in assay [2] (3 days treatment); 3.6 fold in assay [3] (1 day); 7.8 fold in assay [3] (3 days). For the same compound, in assay [4], the “hECaC2 expression response to VitD” value is on record as “upregulated”. In addition, the “hECaC1 expression in response to VitD” value in assay [5] was “nor was expression induced”. Besides, the “murine ECaC1 or 2 expression response to VitD” value in assay [6] is reported as “unresponsive”.
